# Experimental data: the OPERA property sets (Mansouri et al. 2018)
# Conditions: for log10 BCF / log10 biotransformation half-life (days): fish
Compound,melting point [°C],boiling point [°C],also measured
CCCSP(=O)(OCC)SCCC,-13,,log10 Koc (L/kg): 1.85; log10 vapour pressure (mmHg): -3.42
CCCCC(CC)C(C)C (stereo unspecified),,163,
CC(Cl)CCCCl (stereo unspecified),,162,
CCC(C)c1ccc(OCC2CO2)cc1 (stereo unspecified),,,ready biodegradability: not readily biodegradable
COc1ccc(CCc2cc(OC)c3ccccc3n2)cc1OC,116,,
CC1CCOC1 (stereo unspecified),,86.5,
Clc1cc(Cl)c(-c2cc(Cl)c(Cl)c(Cl)c2Cl)cc1Cl,,,log10 Henry constant (atm·m³/mol): -5; log10 Koa: 9.88; log10 vapour pressure (mmHg): -6.01; logP: 7.72
C/C=C/C=C/C(=O)OC,15,180,
CCNC(=O)NCC,112,263,
O=[N+]([O-])c1ccccc1/C=C/c1ccccc1,73,,
CCCCCCCCCC#N,-17.9,243,
Nc1nc(N)nc(-c2cc(Cl)ccc2Cl)n1,268,,
C=CCC(=O)O,-35,169,
N#CC(Br)c1ccccc1 (stereo unspecified),29,,
CCCCC(CC)COC(=O)CCCCC(=O)OCC(CC)CCCC (stereo unspecified),-67.8,417,log10 Henry constant (atm·m³/mol): -6.36; log10 Koc (L/kg): 4.19; log10 vapour pressure (mmHg): -6.07; ready biodegradability: readily biodegradable
Clc1cc2oc3c(Cl)c(Cl)c(Cl)cc3c2cc1Cl,196,,log10 Koa: 10.4; log10 vapour pressure (mmHg): -8.58; log10 BCF: 4.13; log10 biotransformation half-life (days): 1.36
Clc1cccc(-c2cccc(Cl)c2Cl)c1,,,log10 Henry constant (atm·m³/mol): -3.8
O=C1CCCCC1=O,40,194,
O=C1CNC(=S)N1,230,,
Cn1cccc1,,115,log10 vapour pressure (mmHg): 1.33; ready biodegradability: readily biodegradable
O=C(O)c1ccccc1Oc1ccccc1,113,355,

Compound,melting point [°C],boiling point [°C],also measured
CCC1(C2=C[C@H]3CC[C@@H](C2)C3)C(=O)NC(=O)NC1=O,213,,
CCCC(Cl)CC (stereo unspecified),,123,
CCSC(=O)N(CC)C1CCCCC1,11.5,,log10 Koc (L/kg): 2.54; log10 vapour pressure (mmHg): -2.7; ready biodegradability: not readily biodegradable
CCCCCCCC(=O)OCC(COC(=O)CCCCCCC)OC(=O)CCCCCCC,10,,
CC(=O)c1ccc(C(C)=O)cc1,112,,
Nc1ccc([N+](=O)[O-])cc1N,200,,
Fc1ccccc1C(F)(F)F,,114,log10 vapour pressure (mmHg): 1.58
COc1c(Cl)cc(Cl)cc1Cl,61.5,241,log10 BCF: 2.86
C[N+]12CCC(CC1)C(OC(=O)C(O)(c1ccccc1)c1ccccc1)C2.[Br-] (stereo unspecified),240,,
Cc1ccc(Sc2ccc(C)cc2)cc1,57.3,,
CC(C)COC=O,-95.8,98.2,log10 vapour pressure (mmHg): 1.6
NC1CCC1,,82,
COC(=O)c1cccc(Cl)c1,21,,
COC(C)CC(OC)OC (stereo unspecified),,157,
C=C[C@](C)(O)CC[C@@H]1[C@@]2(C)CCCC(C)(C)[C@@H]2CC[C@@]1(C)O,97,,
CCCN(CCC)c1c([N+](=O)[O-])cc(C)cc1[N+](=O)[O-],80,,
Clc1cc(Cl)c(Cl)c(-c2c(Cl)c(Cl)c(Cl)c(Cl)c2Cl)c1Cl,,,log10 biotransformation half-life (days): 2.63
CN(C)c1ccccc1N,,218,
Oc1c(Cl)c(O)c(Cl)c(O)c1Cl,136,,
CC(CCc1ccccc1)NC(C)C(O)c1ccc(O)cc1 (stereo unspecified),112,,
Cc1cc2c(cc1S(N)(=O)=O)S(=O)(=O)CCC2,236,,

Compound,melting point [°C],boiling point [°C],also measured
Clc1ccc(Oc2cc(Cl)c(Cl)cc2Cl)c(Cl)c1,,,log10 biotransformation half-life (days): 2.02
C#C[C@]1(O)CC[C@H]2[C@@H]3[C@H](C)CC4=C(CCC(=O)C4)[C@H]3CC[C@@]21C,167,,
O=C1OC2(OC=C(c3ccccc3)C2=O)c2ccccc21 (stereo unspecified),154,,
CCCCC(C#N)(Cn1cncn1)c1ccc(Cl)cc1 (stereo unspecified),,,log10 Koc (L/kg): 2.7
N#Cc1cc(F)c(F)c(F)c1F,,164,
CCCC[Si](C)(C)Cl,,139,
COc1cnc(NS(=O)(=O)c2ccc(N)cc2)nc1,215,,
CCCC=CC(C)C,-108,112,
Oc1cc(O)c2c(c1)O[C@H](c1ccc(O)c(O)c1)[C@@H](O)C2,,,log10 Koc (L/kg): 2.03
FC(Cl)(Cl)Cl,-111,23.7,log10 Henry constant (atm·m³/mol): -1.01; log10 vapour pressure (mmHg): 2.9
CCCCCCCCCCCCCCCc1cccc(O)c1,53.5,,ready biodegradability: readily biodegradable
CON(C(=O)c1cc(C)oc1C)C1CCCCC1,33,,
Cc1ccccc1-c1ccccc1C,19.5,256,
CCOC(=O)CCCC(=O)OCC,-24.1,236,log10 vapour pressure (mmHg): -0.793
NS(=O)(=O)c1ccc(SCCO)cc1,112,,
C=C(C)c1ccc(C(C)C)cc1,-30.6,221,
C[C@]12C=CC(=O)C=C1CC[C@@H]1[C@@H]2[C@@H](O)C[C@@]2(C)[C@H]1CC[C@]2(O)C(=O)COC(=O)CCCc1ccc(N(CCCl)CCCl)cc1,164,,
CNC(=O)Nc1ccc(C)c(Cl)c1,,,log10 Koc (L/kg): 2.1
COc1cc([C@@H]2c3cc4c(c(O)c3C[C@H]3COC(=O)[C@@H]32)OCO4)cc(OC)c1OC,234,,
CCCCCCCCCCCCCC(CCCCCCCCCC)CCCCCCCCCC,10.8,,
